In this assay the target is T1, TRIB2 (Homo sapiens, UniProt Q92519).
T1 sequence (Q92519 1-343): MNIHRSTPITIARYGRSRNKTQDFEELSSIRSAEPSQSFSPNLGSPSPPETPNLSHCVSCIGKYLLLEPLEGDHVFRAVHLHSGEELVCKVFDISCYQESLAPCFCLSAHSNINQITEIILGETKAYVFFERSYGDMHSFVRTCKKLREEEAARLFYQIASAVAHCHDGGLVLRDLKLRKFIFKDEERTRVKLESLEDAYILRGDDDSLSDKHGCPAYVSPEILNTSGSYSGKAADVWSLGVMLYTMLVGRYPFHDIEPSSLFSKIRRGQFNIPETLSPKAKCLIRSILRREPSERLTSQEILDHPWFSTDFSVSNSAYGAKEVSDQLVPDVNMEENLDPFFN
As to the kind of experiment: radiometric […]-ATP kinase assay with recombinant human TRIB2; supported by CETSA in PC3 cells. The class given is biochemical.

Each structure is given as a SMILES string.

For the compound `O=C(Nc1ccc2c(c1)CNCC2)c1n[nH]c2ccc(-c3cccnc3F)cc12` [compound 1, 5-(2-fluoropyridin-3-yl)-N-(1,2,3,4-tetrahydroisoquinolin-7-yl)-1H-indazole-3-carboxamide], the IC50 came out at 0.74 nM.
For `O=C1CCC(N2C(=O)c3ccc(NCCCCCCCCCC(=O)N4CCc5ccc(NC(=O)c6n[nH]c7ccc(-c8cccnc8F)cc67)cc5C4)cc3C2=O)C(=O)N1` (centres unmarked) [5k, N-(2-(10-((2-(2,6-dioxopiperidin-3-yl)-1,3-dioxoisoindolin-5-yl)amino)-decanoyl)-1,2,3,4-tetrahydroisoquinolin-7-yl)-5-(2-fluoropyridin-3-yl)-1H-indazole-3-carboxamide] the value was 65.2 nM.

(Values after paper PMC12135709, “Discovery of the First Selective and Potent PROTAC Degrader for the Pseudokinase TRIB2” (European journal of medicinal chemistry, 2024).)
